Source: patent US12233060B2, “Inhibitors of Ataxia-Telangiectasia Mutated and Rad3-related protein kinase (ATR) for use in methods of treating cancer” (THE INSTITUTE OF CANCER RESEARCH: ROYAL CANCER HOSPITAL, priority 2016, dated 2025)

What was measured:
[1] = system: TOV21G (ARID1A mutant) and RMG1 (ARID1A wildtype) cells; assay: Five-day dose response in OCCC cell lines TOV21G and RMG1; format: cell-based, human; conditions: 5 days exposure
Experimental: FIG. 3. In vivo ARID1A/ATR synthetic lethality. A. Schematic of VX-970 therapy experiment in mice bearing established HCT116 ARID1A^+/+ and ARID1A^−/− xenografts. Cells were inoculated subcutaneously into nude mice and tumors allowed to establish for 10 days. Mice were then randomized to treatment regimens of either VX-970 (60 mg/kg, 4× weekly by oral gavage) or vehicle. Mice were then treated for a subsequent 40 days. Tumor volume was monitored twice weekly. B. Relative tumor volume plot from (A) showing efficacy of VX-970 and selectivity for ARID1A^−/− xenografts* p=0.024, ANOVA. C. Schematic of tumor incidence experiment in mice with non-established HCT116 ARID1A^+/+ and ARID1A^−/− xenografts. Mice were inoculated with cells as before, randomized and then treated with VX-970. […] Tumor volume was monitored twice weekly and overall tumour incidence was assessed 40 days later. […] PARP-1, cleaved PARP-1 (85 kDa fragment) and tubulin were detected by western blot. […] Caspase3/7 activity was assessed using Caspase-Glo and total cellular viability was estimated using CellTitre-Glo. Luminescence ratios for Caspase-Glo (i.e. apoptotic cells) and CellTitre-Glo (ie viable cells) was determined for each dose and normalized to DMSO treated samples. *Student's t-test, p<0.05. […]
Short-term survival assays were performed in 384-well plates. […] Colonies were counted manually. […]

[2] = system: Arid1a+/+ and Arid1a−/− mouse embryonic stem (ES) cells; assay: Clonogenic survival of mouse Arid1a isogenic ES cells; format: cell-based; conditions: p<0.001 ANOVA
Experimental: FIG. 2. In vitro ARID1A/ATR synthetic lethality. A. Chemical structure of VX-970. B. Western blot of ARID1A in human ARID1A isogenic HCT116 cells. C. Image of colonies in 6 well-plate clonogenic assay. HCT116 ARID1A isogenic (^+/+ and ^−/−) cell lines were exposed to increasing concentrations of the VE-821 (0, 0.1, 1 uM) and VX-970 (0, 0.01, 0.05 uM) for 14 days. D and E. Dose response clonogenic survival curve of HCT116 ARID1A isogenic (^+/+ and ^−/−) cell lines exposed to increasing concentrations of the VE-821 and VX-970 for 14 days. Error bars represent SD from triplicate experiments, ANOVA p-value of <0.0001. F. Area under curve (AUC) box whisker comparison plot for human tumor cell lines exposed to VX-970 for five days. ARID1A wild type tumor cell lines (n=15) were compared to ARID1A mutant cell lines (n=9). Student's t-test p=0.00594. G. Dose response clonogenic survival curve of mouse Arid1a isogenic ES cell lines. Experiment was performed as per (C). Error bars represent SD from triplicate experiments, ANOVA p value of <0.0001. H. Western blot of Arid1a protein expression in mouse ES Arid1a isogenic cells. […]
(§1) Short-term survival assays were performed in 384-well plates. […] Drug was added 24 h after seeding and cells were continuously exposed to the drug for five days, after which cell viability was estimated using CellTitre-Glo luminescence (Promega). […] Colonies were counted manually. […]

[3] = target: ATR (Homo sapiens, UniProt Q13535); conditions: ATR catalytic inhibitor; reference 15; cited from earlier work
ATR, sequence (Q13535 whole entry): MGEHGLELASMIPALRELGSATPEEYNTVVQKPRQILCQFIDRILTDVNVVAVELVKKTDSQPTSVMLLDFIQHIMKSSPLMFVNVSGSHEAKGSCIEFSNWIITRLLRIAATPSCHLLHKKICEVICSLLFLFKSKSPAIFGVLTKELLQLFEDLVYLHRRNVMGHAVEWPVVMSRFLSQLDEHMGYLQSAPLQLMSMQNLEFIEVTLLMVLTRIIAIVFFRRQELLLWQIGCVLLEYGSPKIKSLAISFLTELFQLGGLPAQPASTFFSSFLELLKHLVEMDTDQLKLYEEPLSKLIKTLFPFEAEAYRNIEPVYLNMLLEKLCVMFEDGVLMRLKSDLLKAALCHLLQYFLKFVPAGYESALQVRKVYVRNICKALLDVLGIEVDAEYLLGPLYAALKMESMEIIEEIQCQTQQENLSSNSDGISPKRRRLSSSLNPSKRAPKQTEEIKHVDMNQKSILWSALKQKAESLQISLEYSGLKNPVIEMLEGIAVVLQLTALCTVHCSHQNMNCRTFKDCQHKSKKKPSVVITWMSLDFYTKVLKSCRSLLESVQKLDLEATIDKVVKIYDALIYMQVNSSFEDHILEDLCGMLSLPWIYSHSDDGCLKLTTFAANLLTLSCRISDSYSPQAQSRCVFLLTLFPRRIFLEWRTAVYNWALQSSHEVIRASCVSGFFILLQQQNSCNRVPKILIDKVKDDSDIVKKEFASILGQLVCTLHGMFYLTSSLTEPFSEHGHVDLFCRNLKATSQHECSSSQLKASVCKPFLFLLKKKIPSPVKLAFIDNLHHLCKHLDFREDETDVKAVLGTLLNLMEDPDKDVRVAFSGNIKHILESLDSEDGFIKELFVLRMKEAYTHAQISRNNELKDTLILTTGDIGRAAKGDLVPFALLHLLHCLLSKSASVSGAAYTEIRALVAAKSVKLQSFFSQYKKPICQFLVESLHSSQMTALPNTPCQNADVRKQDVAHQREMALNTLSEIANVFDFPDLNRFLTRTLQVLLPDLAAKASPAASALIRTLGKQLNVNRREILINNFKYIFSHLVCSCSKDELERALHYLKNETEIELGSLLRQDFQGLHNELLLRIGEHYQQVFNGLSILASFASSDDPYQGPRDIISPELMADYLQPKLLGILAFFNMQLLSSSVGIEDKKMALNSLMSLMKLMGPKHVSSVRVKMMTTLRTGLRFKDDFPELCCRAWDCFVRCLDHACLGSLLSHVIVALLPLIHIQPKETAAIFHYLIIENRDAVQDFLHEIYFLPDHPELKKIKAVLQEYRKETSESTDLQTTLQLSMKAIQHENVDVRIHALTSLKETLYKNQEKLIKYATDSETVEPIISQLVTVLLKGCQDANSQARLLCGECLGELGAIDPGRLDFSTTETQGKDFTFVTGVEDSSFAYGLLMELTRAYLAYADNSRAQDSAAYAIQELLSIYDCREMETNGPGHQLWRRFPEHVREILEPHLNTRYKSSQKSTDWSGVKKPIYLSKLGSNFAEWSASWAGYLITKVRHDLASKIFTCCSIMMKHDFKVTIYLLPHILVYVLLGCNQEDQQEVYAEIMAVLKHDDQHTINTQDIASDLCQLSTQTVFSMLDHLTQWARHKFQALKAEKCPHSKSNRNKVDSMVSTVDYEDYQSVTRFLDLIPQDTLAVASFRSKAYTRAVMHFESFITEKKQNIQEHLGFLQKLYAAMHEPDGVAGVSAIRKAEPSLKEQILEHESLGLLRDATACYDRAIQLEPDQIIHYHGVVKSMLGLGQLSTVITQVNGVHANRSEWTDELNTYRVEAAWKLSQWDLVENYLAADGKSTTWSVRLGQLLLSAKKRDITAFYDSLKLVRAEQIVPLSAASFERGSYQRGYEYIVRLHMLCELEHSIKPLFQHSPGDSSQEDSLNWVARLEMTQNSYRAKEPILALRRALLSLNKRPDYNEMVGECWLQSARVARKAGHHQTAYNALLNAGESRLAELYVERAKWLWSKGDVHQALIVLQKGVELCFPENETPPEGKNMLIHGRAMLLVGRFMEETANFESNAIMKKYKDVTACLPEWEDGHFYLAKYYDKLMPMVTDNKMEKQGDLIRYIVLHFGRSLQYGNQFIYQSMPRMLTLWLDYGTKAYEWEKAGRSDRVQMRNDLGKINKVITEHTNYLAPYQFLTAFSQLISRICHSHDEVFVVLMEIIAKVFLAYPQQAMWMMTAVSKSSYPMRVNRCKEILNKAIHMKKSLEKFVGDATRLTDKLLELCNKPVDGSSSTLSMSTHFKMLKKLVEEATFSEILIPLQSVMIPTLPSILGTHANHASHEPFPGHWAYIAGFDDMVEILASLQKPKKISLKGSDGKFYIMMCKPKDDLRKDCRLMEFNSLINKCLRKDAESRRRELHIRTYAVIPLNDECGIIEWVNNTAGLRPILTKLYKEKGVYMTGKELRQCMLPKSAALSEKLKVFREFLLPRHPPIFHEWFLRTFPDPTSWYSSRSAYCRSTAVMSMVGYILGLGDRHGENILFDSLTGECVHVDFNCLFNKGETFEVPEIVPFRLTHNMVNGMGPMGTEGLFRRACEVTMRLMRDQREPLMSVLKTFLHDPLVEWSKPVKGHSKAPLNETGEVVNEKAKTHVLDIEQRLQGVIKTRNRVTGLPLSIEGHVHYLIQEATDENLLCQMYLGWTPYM
ATR, sequence (Q8WXE1 whole entry partner): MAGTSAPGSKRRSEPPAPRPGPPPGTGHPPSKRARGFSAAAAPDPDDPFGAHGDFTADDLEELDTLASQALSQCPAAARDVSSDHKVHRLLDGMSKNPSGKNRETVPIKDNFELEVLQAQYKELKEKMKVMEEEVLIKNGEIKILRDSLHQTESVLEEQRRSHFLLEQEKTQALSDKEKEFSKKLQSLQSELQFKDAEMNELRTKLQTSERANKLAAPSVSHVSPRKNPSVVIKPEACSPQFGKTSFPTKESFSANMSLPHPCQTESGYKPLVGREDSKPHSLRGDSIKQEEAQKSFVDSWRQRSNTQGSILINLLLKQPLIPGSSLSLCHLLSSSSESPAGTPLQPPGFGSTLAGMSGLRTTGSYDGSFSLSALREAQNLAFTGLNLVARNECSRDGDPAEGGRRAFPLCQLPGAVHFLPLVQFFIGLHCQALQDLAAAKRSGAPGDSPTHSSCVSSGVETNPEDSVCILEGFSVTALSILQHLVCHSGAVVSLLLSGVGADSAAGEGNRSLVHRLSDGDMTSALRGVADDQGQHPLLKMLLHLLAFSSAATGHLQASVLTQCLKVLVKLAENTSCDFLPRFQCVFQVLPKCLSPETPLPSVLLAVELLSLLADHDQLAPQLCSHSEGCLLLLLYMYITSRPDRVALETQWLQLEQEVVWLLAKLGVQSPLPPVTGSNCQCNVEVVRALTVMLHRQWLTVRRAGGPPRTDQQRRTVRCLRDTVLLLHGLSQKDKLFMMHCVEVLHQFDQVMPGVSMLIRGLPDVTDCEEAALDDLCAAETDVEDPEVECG

[4] = system: HCC1143 cells; assay: 384 well plate cell survival after ARID1A siRNA transfection; format: cell-based, human; conditions: ARID1A siRNA vs control, five continuous days exposure
From the text: FIG. 1. […] A. Structure of VE-821 and schematic describing workflow for parallel VE-821 chemosensitisation screens in MCF12A and HCC1143 cells. B. Scatter plots of VE-821 Drug Effect (DE) Z-scores from all 1280 siRNAs used in the in the chemosensitisation screens. The DE Z-score threshold of −2 (red line) was used for defining candidate synthetic lethal interactions is shown. C. Venn diagram of DE<−2 VE-821 sensitisation hits in MCF12A and HCC1143 cells. Numbers shown indicate number of sensitisation genes. Amongst the 30 genes with DE Z-scores <−2 in both cell lines, seven well-established tumour suppressor genes were identified. D. Bar charts illustrating DE Z-scores for control, non-targeting, siRNAs (siALLSTAR, siCON1, siCON2) and ARID1A siRNAs in the chemosensitisation screens. Values shown are median from triplicate screens and error bars represent SD. […]
A siRNA library was purchased from Dharmacon. […] RNAi screening conditions were optimised and raw CellTitre-Glo (Promega) luminescent viability readings were generated as previously described21. […]
as §1

[5] = system: HCT116 ARID1A isogenic (+/+ and −/−) cell lines; assay: Clonogenic survival of ARID1A isogenic cells; format: cell-based, human
Experimental: FIG. 2. In vitro ARID1A/ATR synthetic lethality. A. Chemical structure of VX-970. B. Western blot of ARID1A in human ARID1A isogenic HCT116 cells. C. Image of colonies in 6 well-plate clonogenic assay. HCT116 ARID1A isogenic (^+/+ and ^−/−) cell lines were exposed to increasing concentrations of the VE-821 (0, 0.1, 1 uM) and VX-970 (0, 0.01, 0.05 uM) for 14 days. D and E. Dose response clonogenic survival curve of HCT116 ARID1A isogenic (^+/+ and ^−/−) cell lines exposed to increasing concentrations of the VE-821 and VX-970 for 14 days. Error bars represent SD from triplicate experiments, ANOVA p-value of <0.0001. F. Area under curve (AUC) box whisker comparison plot for human tumor cell lines exposed to VX-970 for five days. ARID1A wild type tumor cell lines (n=15) were compared to ARID1A mutant cell lines (n=9). Student's t-test p=0.00594. G. Dose response clonogenic survival curve of mouse Arid1a isogenic ES cell lines. Experiment was performed as per (C). Error bars represent SD from triplicate experiments, ANOVA p value of <0.0001. H. Western blot of Arid1a protein expression in mouse ES Arid1a isogenic cells. I. Z score box whisker comparison plot for 86 human tumor cell lines transfected with ATR siRNA. Cells lines were transfected with siRNA and cell viability was estimated five days later by Cell Titre Glo reagent.
Short-term survival assays were performed in 384-well plates. Exponentially growing cells were plated at a concentration of 500 cells/well. Drug was added 24 h after seeding and cells were continuously exposed to the drug for five days, after which cell viability was estimated using CellTitre-Glo luminescence (Promega). For clonogenic assays, cells were seeded in 6-well plates (500 cells/well) and continuously exposed to drug 24!h after seeding for 14 days. Media containing fresh drug was replaced every 72 hours. Cells were fixed with 10% trichloroacetic acid and stained with sulphorhodamine B (Sigma-Aldrich, Gillingham, UK). Colonies were counted manually. All cell-based assays were performed at least in triplicate.

CS(=O)(=O)c1ccc(-c2cnc(N)c(C(=O)Nc3ccccc3)n2)cc1 [VE-821, 3-amino-6-(4-methylsulfonylphenyl)-N-phenyl-pyrazine-2-carboxamide]
sensitivity of TOV21G vs RMG1 [1]: more sensitive to both VE-821 and VX-970
selective targeting of Arid1a−/− ES cells in clonogenic assays [2]: selectively targeted Arid1a^−/− ES cells
Ki [3]: 13 nM
ATRi sensitivity caused by ARID1A siRNA [4]: significantly enhanced sensitivity to VE-821

CN(Cc1cnc2nc(N)nc(N)c2n1)c1ccc(C(=O)N[C@@H](CCC(=O)O)C(=O)O)cc1 [methotrexate]
ARID1A−/− selectivity [5]: neither taxol or methotrexate elicited ARID1A^−/− selectivity

CC(=O)O[C@H]1C(=O)[C@@]2(C)[C@H]([C@H](OC(=O)c3ccccc3)[C@]3(O)C[C@H](OC(=O)[C@H](O)[C@@H](NC(=O)c4ccccc4)c4ccccc4)C(C)=C1C3(C)C)[C@]1(OC(C)=O)CO[C@@H]1C[C@@H]2O [taxol]
ARID1A−/− selectivity [5]: neither taxol or methotrexate elicited ARID1A^−/− selectivity
